Measurements: ChEMBL document CHEMBL1212738, “Phenotypic and genotypic characterization of Enterobacteriaceae with decreased susceptibility to carbapenems: results from large hospital-based surveillance studies in China” (2010)
≈ marks a conversion by molar mass, not a printed value.

Tests used:
Klebsiella pneumoniae [1] = test: Antimicrobial activity against carbapenem-resistant Klebsiella pneumoniae ZJ69 deficient in SHV-28, ompK35/36 by CLSI method; type: functional
Klebsiella pneumoniae [2] = test: Antimicrobial activity against carbapenem-resistant Klebsiella pneumoniae GZ83 deficient in SHV-11, CTX-M-14, ompK35/36 by CLSI method; type: functional
Escherichia coli [3] = test: Antimicrobial activity against Escherichia coli PU60T expressing CMY-2 by CLSI method; type: functional
Escherichia coli [4] = test: Antimicrobial activity against carbapenem-resistant Escherichia coli PU101 deficient in TEM-1, CTX-M-14, CMY-2, ompC by CLSI method; type: functional
Escherichia coli [5] = test: Antimicrobial activity against Escherichia coli PU101T expressing CMY-2 by CLSI method; type: functional
Enterobacter cloacae [6] = test: Antimicrobial activity against carbapenem-resistant Enterobacter cloacae GX24 deficient in TEM-1, DHA-1, aac(6')-Ib, ompC by CLSI method; type: functional
Escherichia coli [7] = test: Antimicrobial activity against Escherichia coli HX74T expressing CTX-M-3 by CLSI method; type: functional
Enterobacter cloacae [8] = test: Antimicrobial activity against carbapenem-resistant Enterobacter cloacae GX56 deficient in ompC and expressing low levels of ompF DE by CLSI method; type: functional
Klebsiella aerogenes = test: Antimicrobial activity against carbapenem-resistant Enterobacter aerogenes WH85 deficient in TEM-1, CTX-M-3, ompC/F by CLSI method; type: functional
Klebsiella pneumoniae [9] = test: Antimicrobial activity against carbapenem-resistant Klebsiella pneumoniae GZ84 deficient in SHV-11, aac(6')-Ib-cr, ompK35 by CLSI method; type: functional
Klebsiella pneumoniae [10] = test: Antimicrobial activity against carbapenem-resistant Klebsiella pneumoniae ZJ70 deficient in KPC-2, SHV-11, CTX-M-14, ompK35/36 by CLSI method; type: functional
Klebsiella pneumoniae [11] = test: Antimicrobial activity against carbapenem-resistant Klebsiella pneumoniae ZJ71 deficient in KPC-2, TEM-1, SHV-11, CTX-M-14, ompK35 by CLSI method; type: functional
Klebsiella pneumoniae [12] = test: Antimicrobial activity against Klebsiella pneumoniae ZJ71T expressing KPC-2 by CLSI method; type: functional
Klebsiella pneumoniae [13] = test: Antimicrobial activity against Klebsiella pneumoniae ZJ99 expressing KPC-2, CTX-M-3, qnrS1, ompK35 DE by CLSI method; type: functional
Klebsiella pneumoniae [14] = test: Antimicrobial activity against Klebsiella pneumoniae ZJ99T expressing KPC-2, CTX-M-3, qnrS1 by CLSI method; type: functional
Escherichia coli [15] = test: Antimicrobial activity against Escherichia coli ZJ87T expressing KPC-2 by CLSI method; type: functional
Klebsiella pneumoniae [16] = test: Antimicrobial activity against carbapenem-resistant Klebsiella pneumoniae FZ47 deficient in IMP-8, TEM-1, SHV-11, CTX-M-14, qnrB2, aac(6')-Ib, ompK35/36 by CLSI method; type: functional
Klebsiella pneumoniae [17] = test: Antimicrobial activity against carbapenem-resistant Klebsiella pneumoniae FZ49 deficient in IMP-8, TEM-1, SHV-11, CTX-M-14, qnrB2, aac(6')-Ib, ompK35/36 by CLSI method; type: functional
Klebsiella pneumoniae [18] = test: Antimicrobial activity against Klebsiella pneumoniae WH76 expressing IMP-4, TEM-1, SHV-14, CTX-M-3, qnrS1 by CLSI method; type: functional
Klebsiella pneumoniae [19] = test: Antimicrobial activity against Klebsiella pneumoniae WH77 expressing IMP-4, TEM-1, SHV-14, CTX-M-3, qnrS1 by CLSI method; type: functional
Citrobacter freundii [20] = test: Antimicrobial activity against Citrobacter freundii SZ62 expressing IMP-4, TEM-1, CMY-2, qnrS1, aac(6')-Ib-cr by CLSI method; type: functional
Citrobacter freundii [21] = test: Antimicrobial activity against Citrobacter freundii SZ63 expressing IMP-4, qnrS1by CLSI method; type: functional
Citrobacter freundii [22] = test: Antimicrobial activity against Citrobacter freundii SZ63T expressing IMP-4, qnrS1by CLSI method; type: functional
Enterobacter cloacae [23] = test: Antimicrobial activity against carbapenem-resistant Enterobacter cloacae SZ92 deficient in IMP-4, TEM-1, CTX-M-14, DHA-1, qnrB10/B4-like, aac(6')-Ib, ompC by CLSI method; type: functional
Escherichia coli [24] = test: Antimicrobial activity against Escherichia coli C600 by CLSI method; type: functional
Klebsiella pneumoniae [25] = test: Antimicrobial activity against carbapenem-resistant Klebsiella pneumoniae CY1 deficient in SHV-11, DHA-1, ompK35/36 by CLSI method; type: functional
Klebsiella pneumoniae [26] = test: Antimicrobial activity against Klebsiella pneumoniae CY1T expressing SHV-11, DHA-1 by CLSI method; type: functional
Klebsiella pneumoniae [27] = test: Antimicrobial activity against carbapenem-resistant Klebsiella pneumoniae PU4 deficient in SHV-1, DHA-1, ompK35/36 by CLSI method; type: functional
Klebsiella pneumoniae [28] = test: Antimicrobial activity against carbapenem-resistant Klebsiella pneumoniae PU5 deficient in SHV-12, DHA-1, aac(6')-Ib-cr, ompK35/36 by CLSI method; type: functional
Klebsiella pneumoniae [29] = test: Antimicrobial activity against carbapenem-resistant Klebsiella pneumoniae PU8 deficient in SHV-11, DHA-1, aac(6')-Ib-cr, ompK35/36 by CLSI method; type: functional
Klebsiella pneumoniae [30] = test: Antimicrobial activity against carbapenem-resistant Klebsiella pneumoniae SZ61 deficient in TEM-1, SHV-1a, CMY-2, ompK35/36 by CLSI method; type: functional
Klebsiella pneumoniae [31] = test: Antimicrobial activity against carbapenem-resistant Klebsiella pneumoniae GZ66 deficient in SHV-11, DHA-1, ompK35/36 by CLSI method; type: functional
Klebsiella pneumoniae [32] = test: Antimicrobial activity against carbapenem-resistant Klebsiella pneumoniae CY75 deficient in SHV-11, DHA-1, ompK35/36 by CLSI method; type: functional
Klebsiella pneumoniae [33] = test: Antimicrobial activity against carbapenem-resistant Klebsiella pneumoniae XJ81 deficient in TEM-1, SHV-12, DHA-1, aac(6')-Ib, ompK35/36 by CLSI method; type: functional
Klebsiella pneumoniae [34] = test: Antimicrobial activity against carbapenem-resistant Klebsiella pneumoniae PU105 deficient TEM-1, SHV-12, CTX-M-14, DHA-1, qnrB10/B4-like, aac(6')-Ib-cr, ompK35/36 by CLSI method; type: functional
Escherichia coli [35] = test: Antimicrobial activity against Escherichia coli C600 transconjugant SZ62T expressing IMP-4, qnrS1by CLSI method
Klebsiella pneumoniae [36] = test: Antimicrobial activity against carbapenem-resistant Klebsiella pneumoniae ZJ68 deficient in CTX-M-15, ompK35/36 by CLSI method
Escherichia coli [37] = test: Antimicrobial activity against carbapenem-resistant Escherichia coli ZJ86 expressing KPC-2, TEM-1 with ompC loss by CLSI method
Escherichia coli [38] = test: Antimicrobial activity against Escherichia coli C600 transconjugant WH76T expressing IMP-4, TEM-1, CTX-M-3, qnrS1 by CLSI method
Escherichia coli [39] = test: Antimicrobial activity against Escherichia coli C600 transconjugant WH77T expressing IMP-4, TEM-1, CTX-M-3, qnrS1 by CLSI method

In the case of `CC(C)(O/N=C(\C(=O)N[C@@H]1C(=O)N2C(C(=O)[O-])=C(C[n+]3ccccc3)CS[C@H]12)c1csc(N)n1)C(=O)O` [CEFTAZIDIME], the MIC (Klebsiella pneumoniae [1]) is reported as 128 µg/mL (≈ 234 µM), the MIC (Klebsiella pneumoniae [2]) is reported as over 256 µg/mL and the MIC (Escherichia coli [3]) is reported as 64 µg/mL (≈ 117 µM). It also gave an MIC (Escherichia coli [4]) of over 256 µg/mL, an MIC (Escherichia coli [5]) of over 256 µg/mL and an MIC (Enterobacter cloacae [6]) of over 256 µg/mL. For the same compound, the MIC (Escherichia coli [7]) was 256 µg/mL (≈ 468 µM), the MIC (Enterobacter cloacae [8]) was 256 µg/mL (≈ 468 µM) and the MIC (Klebsiella aerogenes) was 32 µg/mL (≈ 58.5 µM). For the same compound, the MIC (Klebsiella pneumoniae [9]) was 256 µg/mL (≈ 468 µM), the MIC (Klebsiella pneumoniae [10]) was 64 µg/mL (≈ 117 µM) and the MIC (Klebsiella pneumoniae [11]) was 32 µg/mL (≈ 58.5 µM). It also gave an MIC (Klebsiella pneumoniae [12]) of 32 µg/mL (≈ 58.5 µM), an MIC (Klebsiella pneumoniae [13]) of 64 µg/mL (≈ 117 µM) and an MIC (Klebsiella pneumoniae [14]) of 128 µg/mL (≈ 234 µM). The MIC (Escherichia coli [15]) was 32 µg/mL (≈ 58.5 µM), the MIC (Klebsiella pneumoniae [16]) was over 256 µg/mL and the MIC (Klebsiella pneumoniae [17]) was over 256 µg/mL. It also gave an MIC (Klebsiella pneumoniae [18]) of 256 µg/mL (≈ 468 µM), an MIC (Klebsiella pneumoniae [19]) of 256 µg/mL (≈ 468 µM) and an MIC (Citrobacter freundii [20]) of over 256 µg/mL. It also gave an MIC (Citrobacter freundii [21]) of over 256 µg/mL, an MIC (Citrobacter freundii [22]) of over 256 µg/mL and an MIC (Enterobacter cloacae [23]) of over 256 µg/mL. The MIC (Escherichia coli [24]) was 0.5 µg/mL (≈ 0.915 µM), the MIC (Klebsiella pneumoniae [25]) was 256 µg/mL (≈ 468 µM) and the MIC (Klebsiella pneumoniae [26]) was 64 µg/mL (≈ 117 µM). For the same compound, the MIC (Klebsiella pneumoniae [27]) was 64 µg/mL (≈ 117 µM), the MIC (Klebsiella pneumoniae [28]) was 256 µg/mL (≈ 468 µM) and the MIC (Klebsiella pneumoniae [29]) was 256 µg/mL (≈ 468 µM). For the same compound, the MIC (Klebsiella pneumoniae [30]) was 256 µg/mL (≈ 468 µM), the MIC (Klebsiella pneumoniae [31]) was over 256 µg/mL and the MIC (Klebsiella pneumoniae [32]) was 256 µg/mL (≈ 468 µM). For the same compound, the MIC (Klebsiella pneumoniae [33]) was over 256 µg/mL, the MIC (Klebsiella pneumoniae [34]) was over 256 µg/mL and the MIC (Escherichia coli [35]) was over 256 µg/mL. It also gave an MIC (Klebsiella pneumoniae [36]) of 256 µg/mL (≈ 468 µM), an MIC (Escherichia coli [37]) of 32 µg/mL (≈ 58.5 µM) and an MIC (Escherichia coli [38]) of over 256 µg/mL. It also gave an MIC (Escherichia coli [39]) of over 256 µg/mL.

For `CN(C)c1cc(NC(=O)CNC(C)(C)C)c(O)c2c1C[C@H]1C[C@H]3[C@H](N(C)C)C(O)=C(C(N)=O)C(=O)[C@@]3(O)C(O)=C1C2=O` [TIGECYCLINE], the MIC (Klebsiella pneumoniae [1]) was 0.5 µg/mL (≈ 0.854 µM), the MIC (Klebsiella pneumoniae [2]) was 0.5 µg/mL (≈ 0.854 µM) and the MIC (Escherichia coli [3]) was 0.125 µg/mL (≈ 0.213 µM). It also gave an MIC (Escherichia coli [4]) of 0.064 µg/mL (≈ 0.109 µM), an MIC (Escherichia coli [5]) of 0.25 µg/mL (≈ 0.427 µM) and an MIC (Enterobacter cloacae [6]) of 1 µg/mL (≈ 1.71 µM). It also gave an MIC (Escherichia coli [7]) of 0.125 µg/mL (≈ 0.213 µM), an MIC (Enterobacter cloacae [8]) of 4 µg/mL (≈ 6.83 µM) and an MIC (Klebsiella aerogenes) of 0.064 µg/mL (≈ 0.109 µM). For the same compound, the MIC (Klebsiella pneumoniae [9]) was 0.5 µg/mL (≈ 0.854 µM), the MIC (Klebsiella pneumoniae [10]) was 0.25 µg/mL (≈ 0.427 µM) and the MIC (Klebsiella pneumoniae [11]) was 0.13 µg/mL (≈ 0.222 µM). The MIC (Klebsiella pneumoniae [12]) was 0.13 µg/mL (≈ 0.222 µM), the MIC (Klebsiella pneumoniae [13]) was 1 µg/mL (≈ 1.71 µM) and the MIC (Klebsiella pneumoniae [14]) was 0.25 µg/mL (≈ 0.427 µM). The MIC (Escherichia coli [15]) was 0.25 µg/mL (≈ 0.427 µM), the MIC (Klebsiella pneumoniae [16]) was 1 µg/mL (≈ 1.71 µM) and the MIC (Klebsiella pneumoniae [17]) was 0.5 µg/mL (≈ 0.854 µM). For the same compound, the MIC (Klebsiella pneumoniae [18]) was 0.5 µg/mL (≈ 0.854 µM), the MIC (Klebsiella pneumoniae [19]) was 0.5 µg/mL (≈ 0.854 µM) and the MIC (Citrobacter freundii [20]) was 1 µg/mL (≈ 1.71 µM). It also gave an MIC (Citrobacter freundii [21]) of 1 µg/mL (≈ 1.71 µM), an MIC (Citrobacter freundii [22]) of 0.13 µg/mL (≈ 0.222 µM) and an MIC (Enterobacter cloacae [23]) of 1 µg/mL (≈ 1.71 µM). For the same compound, the MIC (Escherichia coli [24]) was 0.06 µg/mL (≈ 0.102 µM), the MIC (Klebsiella pneumoniae [25]) was 16 µg/mL (≈ 27.3 µM) and the MIC (Klebsiella pneumoniae [26]) was 1 µg/mL (≈ 1.71 µM). The MIC (Klebsiella pneumoniae [27]) was 4 µg/mL (≈ 6.83 µM), the MIC (Klebsiella pneumoniae [28]) was 0.5 µg/mL (≈ 0.854 µM) and the MIC (Klebsiella pneumoniae [29]) was 1 µg/mL (≈ 1.71 µM). It also gave an MIC (Klebsiella pneumoniae [30]) of 4 µg/mL (≈ 6.83 µM), an MIC (Klebsiella pneumoniae [31]) of 0.5 µg/mL (≈ 0.854 µM) and an MIC (Klebsiella pneumoniae [32]) of 1 µg/mL (≈ 1.71 µM). For the same compound, the MIC (Klebsiella pneumoniae [33]) was 0.5 µg/mL (≈ 0.854 µM), the MIC (Klebsiella pneumoniae [34]) was 2 µg/mL (≈ 3.41 µM) and the MIC (Escherichia coli [35]) was 0.13 µg/mL (≈ 0.222 µM). It also gave an MIC (Klebsiella pneumoniae [36]) of 0.125 µg/mL (≈ 0.213 µM), an MIC (Escherichia coli [37]) of 0.25 µg/mL (≈ 0.427 µM) and an MIC (Escherichia coli [38]) of 0.06 µg/mL (≈ 0.102 µM). The MIC (Escherichia coli [39]) was 0.06 µg/mL (≈ 0.102 µM).
